The record followed here is patent US20120220562A1, “Anti-Viral Compounds” (ABBOTT LABAORATORIES, priority 2011, published 2012).

A value given as a limit tells only on which side of the number the result lay.

The test system of this assay is HCV 1b-Con1 replicon. In words: HCV 1b-Con1 replicon assay in the presence of 5% FBS. It is filed as cell-based. The following applies: Hepatitis C virus.
As to `CCOC(=O)N[C@H](C(=O)N1CCC[C@H]1c1nc2cc([C@H]3CC[C@H](c4ccc5[nH]c([C@@H]6CCCN6C(=O)[C@@H](NC(=O)OCC)C(C)C)nc5c4)N3c3cc(F)c(N4CCC(c5ccccc5)CC4)c(F)c3)ccc2[nH]1)C(C)C` [Example 3.34, ethyl {(2S)-1-[(2S)-2-{5-[(2R,5R)-1-[3,5-difluoro-4-(4-phenylpiperidin-1-yl)phenyl]-5-{2-[(2S)-1-{(2S)-2-[(ethoxycarbonyl)amino]-3-methylbutanoyl}pyrrolidin-2-yl]-1H-benzimidazol-5-yl}pyrrolidin-2-yl]-1H-benzimidazol-2-yl}pyrrolidin-1-yl]-3-methyl-1-oxobutan-2-yl}carbamate], the EC50 was below 0.1 nM.
On to `COC(=O)NC(C(=O)N1CCC[C@H]1c1nc2cc([C@@H]3CC[C@@H](c4ccc5[nH]c([C@@H]6CCCN6C(=O)C(NC(=O)OC)=C(C)C)nc5c4)N3c3ccc(C(C)(C)C)cc3)ccc2[nH]1)=C(C)C` [Example 3.17, dimethyl {[(2S,5S)-1-(4-tert-butylphenyl)pyrrolidine-2,5-diyl]bis[1H-benzimidazole-5,2-diyl(2S)pyrrolidine-2,1-diyl(3-methyl-1-oxobut-2-ene-1,2-diyl)]}biscarbamate], for which the EC50 is below 0.1 nM.
Under `COC(=O)N[C@H](C(=O)N1CCC[C@H]1c1nc2cc([C@H]3CC[C@H](c4ccc5[nH]c([C@@H]6CCCN6C(=O)[C@@H](NC(=O)OC)[C@@H](C)OC)nc5c4)N3c3cc(F)c(N4CCC(c5ccccc5)CC4)c(F)c3)ccc2[nH]1)[C@@H](C)OC` [Example 5.3, methyl {(2S,3R)-1-[(2S)-2-{5-[(2R,5R)-1-[3,5-difluoro-4-(4-phenylpiperidin-1-yl)phenyl]-5-(2-{(2S)-1-[N-(methoxycarbonyl)-O-methyl-L-threonyl]pyrrolidin-2-yl}-1H-benzimidazol-5-yl)pyrrolidin-2-yl]-1H-benzimidazol-2-yl}pyrrolidin-1-yl]-3-methoxy-1-oxobutan-2-yl}carbamate] stands below 0.1 nM.
`COC(=O)N[C@H](C(=O)N1CCC[C@H]1c1nc2ccc([C@H]3CC[C@H](c4ccc5nc([C@@H]6CCCN6C(=O)[C@@H](NC(=O)OC)C(C)C)[nH]c5c4)N3c3ccc(OCC(F)F)cc3)cc2[nH]1)C(C)C` [Example 4.11, methyl {(2S)-1-[(2S)-2-{6-[(2R,5R)-1-[4-(2,2-difluoroethoxy)phenyl]-5-{2-[(2S)-1-{(2S)-2-[(methoxycarbonyl)amino]-3-methylbutanoyl}pyrrolidin-2-yl]-1H-benzimidazol-6-yl}pyrrolidin-2-yl]-1H-benzimidazol-2-yl}pyrrolidin-1-yl]-3-methyl-1-oxobutan-2-yl}carbamate]: the EC50 was below 0.1 nM.
Then `COC(=O)N[C@H](C(=O)N1CCC[C@H]1c1nc2ccc([C@H]3CC[C@H](c4ccc5nc([C@@H]6CCCN6C(=O)[C@@H](NC(=O)OC)C(C)C)[nH]c5c4)N3c3cc(F)c(N4CCC5(CCCC5)CC4)c(F)c3)cc2[nH]1)C(C)C` [Example 2.11, methyl {(2S)-1-[(2S)-2-{5-[(2R,5R)-1-[4-(8-azaspiro[4.5]dec-8-yl)-3,5-difluorophenyl]-5-{2-[(2S)-1-{(2S)-2-[(methoxycarbonyl)amino]-3-methylbutanoyl}pyrrolidin-2-yl]-1H-benzimidazol-5-yl}pyrrolidin-2-yl]-1H-benzimidazol-2-yl}pyrrolidin-1-yl]-3-methyl-1-oxobutan-2-yl}carbamate], with below 0.1 nM.
As for `COC(=O)N[C@H](C(=O)N1CCC[C@H]1c1nc2cc([C@H]3CC[C@H](c4ccc5[nH]c(C6CCCC6)nc5c4)N3c3cc(F)c(N4CCC(c5ccccc5)CC4)c(F)c3)ccc2[nH]1)C(C)C` [Example 11.2, methyl {(2S)-1-[(2S)-2-(5-{(2R,5R)-5-(2-cyclopentyl-1H-benzimidazol-5-yl)-1-[3,5-difluoro-4-(4-phenylpiperidin-1-yl)phenyl]pyrrolidin-2-yl}-1H-benzimidazol-2-yl)pyrrolidin-1-yl]-3-methyl-1-oxobutan-2-yl}carbamate], the EC50 is below 0.1 nM.
Consider `COC(=O)N[C@H](C(=O)N1CCC[C@H]1c1nc2cc([C@H]3CC[C@H](c4ccc5[nH]c([C@@H]6CCCN6C(=O)[C@@H](NC(=O)OC)C6CCOCC6)nc5c4)N3c3ccc(C(C)(C)C)cc3)ccc2[nH]1)C1CCOCC1` [Example 3.6, dimethyl ([(2R,5R)-1-(4-tert-butylphenyl)pyrrolidine-2,5-diyl]bis{1H-benzimidazole-5,2-diyl(2S)pyrrolidine-2,1-diyl[(1S)-2-oxo-1-(tetrahydro-2H-pyran-4-yl)ethane-2,1-diyl]})biscarbamate], for which the EC50 was below 0.1 nM.
Under `COC(=O)N[C@H](C(=O)N1CCC[C@H]1c1nc2cc([C@H]3CC[C@H](c4cc5nc([C@@H]6CCCN6C(=O)[C@@H](NC(=O)OC)C(C)C)[nH]c5cc4F)N3c3cc(F)c(N4CCC(c5ccccc5)CC4)c(F)c3)c(F)cc2[nH]1)C(C)C` [Example 6.11, methyl {(2S)-1-[(2S)-2-{5-[(2R,5R)-1-[3,5-difluoro-4-(4-phenylpiperidin-1-yl)phenyl]-5-{6-fluoro-2-[(2S)-1-{(2S)-2-[(methoxycarbonyl)amino]-3-methylbutanoyl}pyrrolidin-2-yl]-1H-benzimidazol-5-yl}pyrrolidin-2-yl]-6-fluoro-1H-benzimidazol-2-yl}pyrrolidin-1-yl]-3-methyl-1-oxobutan-2-yl}carbamate] stands below 0.1 nM.
Turning to `COC(=O)N[C@H](C(=O)N1CCC[C@H]1c1nc2cc([C@H]3CC[C@H](c4ccc5nc([C@@H]6CCCN6C(=O)[C@@H](NC(=O)OC)C(C)C)[nH]c5c4)N3c3cc(F)c(N4CCC(c5ccccc5)C4)c(F)c3)ccc2[nH]1)C(C)C` (stereo partly drawn) [Example 4.33, methyl {(2S)-1-[(2S)-2-{5-[(2R,5R)-1-[3,5-difluoro-4-(3-phenylpyrrolidin-1-yl)phenyl]-5-{2-[(2S)-1-{(2S)-2-[(methoxycarbonyl)amino]-3-methylbutanoyl}pyrrolidin-2-yl]-1H-benzimidazol-6-yl}pyrrolidin-2-yl]-1H-benzimidazol-2-yl}pyrrolidin-1-yl]-3-methyl-1-oxobutan-2-yl}carbamate], the 50% effective concentration (EC50) is below 0.1 nM.
As for `COC(=O)N[C@H](C(=O)N1CCC[C@H]1c1nc2cc([C@H]3CC[C@H](c4ccc5[nH]c([C@@H]6CCCN6C(=O)[C@@H](NC(=O)OC)C(C)C)nc5c4)N3c3cc(F)c(N4CCCCC4)cc3F)ccc2[nH]1)C(C)C` [Example 4.5, methyl {(2S)-1-[(2S)-2-{5-[(2R,5R)-1-[2,5-difluoro-4-(piperidin-1-yl)phenyl]-5-{2-[(2S)-1-{(2S)-2-[(methoxycarbonyl)amino]-3-methylbutanoyl}pyrrolidin-2-yl]-1H-benzimidazol-5-yl}pyrrolidin-2-yl]-1H-benzimidazol-2-yl}pyrrolidin-1-yl]-3-methyl-1-oxobutan-2-yl}carbamate], the EC50 is below 0.1 nM.
Under `CCC(CC)C(NC(=O)OC)C(=O)N1CCC[C@H]1c1nc2cc([C@H]3CC[C@H](c4ccc5[nH]c([C@@H]6CCCN6C(=O)C(NC(=O)OC)C(CC)CC)nc5c4)N3c3cc(F)c(N4CCC(c5ccccc5)CC4)c(F)c3)ccc2[nH]1` (stereo partly drawn) [Example 3.29, methyl {1-[(2S)-2-{5-[(2R,5R)-1-[3,5-difluoro-4-(4-phenylpiperidin-1-yl)phenyl]-5-{2-[(2S)-1-{3-ethyl-2-[(methoxycarbonyl)amino]pentanoyl}pyrrolidin-2-yl]-1H-benzimidazol-5-yl}pyrrolidin-2-yl]-1H-benzimidazol-2-yl}pyrrolidin-1-yl]-3-ethyl-1-oxopentan-2-yl}carbamate] stands below 0.1 nM.
Then `COC(=O)N[C@H](C(=O)N1CCC[C@H]1c1nc2ccc([C@H]3CC[C@H](c4cc5[nH]c([C@@H]6CCCN6C(=O)[C@@H](NC(=O)OC)C(C)C)nc5cc4F)N3c3cc(F)c(N4CCCCC4)c(F)c3)cc2[nH]1)C(C)C` [Example 4.43, methyl {(2S)-1-[(2S)-2-{6-[(2R,5R)-1-[3,5-difluoro-4-(piperidin-1-yl)phenyl]-5-{5-fluoro-2-[(2S)-1-{(2S)-2-[(methoxycarbonyl)amino]-3-methylbutanoyl}pyrrolidin-2-yl]-1H-benzimidazol-6-yl}pyrrolidin-2-yl]-1H-benzimidazol-2-yl}pyrrolidin-1-yl]-3-methyl-1-oxobutan-2-yl}carbamate], with below 0.1 nM.
As to `COC(=O)N[C@H](C(=O)N1CCC[C@H]1c1nc2cc([C@H]3CC[C@H](c4ccc5[nH]c([C@@H]6CCCN6C(=O)[C@@H](NC(=O)OC)C(C)C)nc5c4)N3c3ccc(OCc4ccccc4)cc3)ccc2[nH]1)C(C)C` [Example 4.41, methyl {(2S)-1-[(2S)-2-{5-[(2R,5R)-1-[4-(benzyloxy)phenyl]-5-{2-[(2S)-1-{(2S)-2-[(methoxycarbonyl)amino]-3-methylbutanoyl}pyrrolidin-2-yl]-1H-benzimidazol-5-yl}pyrrolidin-2-yl]-1H-benzimidazol-2-yl}pyrrolidin-1-yl]-3-methyl-1-oxobutan-2-yl}carbamate], the EC50 is below 0.1 nM.
Under `COC(=O)N[C@H](C(=O)N1CCC[C@H]1c1nc2cc([C@H]3CC[C@H](c4ccc5[nH]c([C@@H]6CCCN6C(=O)[C@@H](NC(=O)OC)C(C)C)nc5c4)N3c3cc(F)c(N4CCC(c5ccc(F)cc5)CC4)c(F)c3)ccc2[nH]1)C(C)C` [Example 3.42, methyl {(2S)-1-[(2S)-2-{5-[(2R,5R)-1-{3,5-difluoro-4-[4-(4-fluorophenyl)piperidin-1-yl]phenyl}-5-{2-[(2S)-1-{(2S)-2-[(methoxycarbonyl)amino]-3-methylbutanoyl}pyrrolidin-2-yl]-1H-benzimidazol-5-yl}pyrrolidin-2-yl]-1H-benzimidazol-2-yl}pyrrolidin-1-yl]-3-methyl-1-oxobutan-2-yl}carbamate] stands below 0.1 nM.
Take `COC(=O)N[C@H](C(=O)N1CCC[C@H]1c1nc2cc([C@H]3CC[C@H](c4ccc5[nH]c([C@@H]6CCCN6C(=O)[C@@H](NC(=O)OC)C6CCOCC6)nc5c4)N3c3cc(F)c(N4CCCCC4)c(F)c3)ccc2[nH]1)C1CCOCC1` [Example 3.18, dimethyl ({(2R,5R)-1-[3,5-difluoro-4-(piperidin-1-yl)phenyl]pyrrolidine-2,5-diyl}bis{1H-benzimidazole-5,2-diyl(2S)pyrrolidine-2,1-diyl [(1S)-2-oxo-1-(tetrahydro-2H-pyran-4-yl)ethane-2,1-diyl]})biscarbamate]: the EC50 was below 0.1 nM.
